Measurements reported in patent US11028369B2, “Induced extended pluripotent stem cells, method of making and using” (Beihao Stem Cell and Regenerative Medicine Research …, priority 2015, dated 2021).
Structures can show the parent of a compound that is named as a salt.

Assays:
hEPS cells = assay: Maintenance of hEPS cells after withdrawal or replacement of DiM or MiH; format: cell-based, human; conditions: for maintenance of hEPS cells when DiM or MiH is replaced: inhibitor of the same target replaces DiM or MiH in LCDM; for maintenance of hEPS cells when DiM is replaced by MAPK signaling inhibitor: replacement of DiM
Protocol: FIGS. 4A and 4B show the profiles of H3K4me3 and H3K27me3 chromatin marks over all genes in primed hES (n=2, technical replicates) and hEPS (n=2, technical replicates) cells. The standard error of mean (SEM) across the regions is calculated and shown as a semi-transparent shade around the mean curve. FIGS. 4C-D are bar graphs showing Q-PCR analysis of selected gene expression in hEPS cells under different conditions at passage 7. DiM (((S)-(+)-Dimethindene maleate) (FIG. 4C) and MiH (Minocycline hydrochloride) (FIG. 4D) were replaced with small molecules targeting to the same targets in the LCDM [hLIF (human leukemia inhibitory factor), CHIR99021, DiM, and MiH] condition. hEPS cells were cultured under LCM condition with an added small molecule selected from: DiM (2 μM), TH(5 μM), DES(5 μM), or cultured with DMSO (dimethyl sulfoxide) respectively (FIG. 4C) or under LCD condition with an added small molecule selected from MiH, BSI-201 (5 μM), NAM (100 μM), PJ34 (N-(6-Oxo-5,6-dihydro-phenanthridin-2-yl)-N,N-dimethylacetamide. HCl) (5 μM), or DMSO (FIG. 4D). Expression values are normalized to the mean value of the LCM+DiM (FIG. 4C) and LCD+MiH (FIG. 4D) sample. LCM: human LIF+CHIR99021+MiH; LCD: human LIF+CHIR99021+DiM. Center values indicate mean. Error bars indicate s.d. (n=3, technical replicates). TH: Tripelennamine HCL; DES: Desloratadine; BSI: BSI-201; NAM: Nicotinamide. […] Expression values are normalized to the mean value of the scramble control. Center values indicate mean. Error bars indicate s.d. (n=3, technical replicates). FIG. 4F is a bar graph showing a summary of chimera assays at E12.5. […] FIG. 4G is a bar graph showing a summary of chimeric assays of single-cell injection at the 8-cell embryo stage. […] ICM & TE, embryos with the integration of mouse cells into both ICM and TE.
Human and mouse extended pluripotent stem cells were cultured in serum-free N2B27-LCDM medium in 20% O2, 5% CO2 conditions. To maintain human EPS cells in an undifferentiated state, the following criteria were used: a) avoidance of plating human EPS cells too sparsely; b) use of the proper quantity of freshly prepared MEF feeder cells; and c) not allowing human EPS cells to overgrow (for example, attain more than 90% confluence; preferably, the cells should be at less than 90% confluent). Accordingly, human and mouse EPS cells were cultured on mitomycin C-inactivated mouse embryonic fibroblast (MEF) feeder cells (3×10^4 cells per cm^2), and were passaged by single-cell trypsinization (0.05% trypsin-EDTA, Invitrogen) every 2-4 days (normally at a split ratio of 1:6 to 1:10). Passage numbers of EPS cells indicate number of passages counted after the acquirement of the extended pluripotent state. The N2B27-LCDM medium was changed every day with fresh LCDM medium.
Finally, the roles of DiM and MiH in maintaining EPS cells were investigated. […] Furthermore, similar results were obtained when MiH was replaced by the knockdown of PARP1 in hEPS cells (FIG. 4E). Importantly, both mEPS and hEPS cells still retained their ability of contributing to both TE and ICM in blastocysts under such conditions (FIG. 6C, 6D, and data not shown).

mEPS cells = assay: Chimeric analysis of mEPS cells cultured under different conditions (injection into 8-cell embryos); format: cell-based, mouse; conditions: chimeric blastocysts; for developmental potency of mEPS cells when DiM is replaced by MAPK signaling inhibitor: replacement of DiM
Protocol: FIGS. 6A and 6B show PCA of RNA-seq and microarray data from EPS cells and known pluripotent cell types. […] Data were normalized to mES cells in each study. […] Data were normalized to primed hPSCs in each study. […] Circles: RNA-seq data; triangles: microarray data. […] Parp1 knockout mEPS cells (Parp1-KO) were cultured in LCDM condition without MiH (-MiH). mEPS cells were cultured under different conditions for at least 5 passages before injection. Multiple cells were injected into 8-cell embryos, which were cultured for additional 60 hours before further analysis. […] ICM & TE, embryos with the integration of mouse cells into both ICM and TE. […] ICM & TE, embryos with the integration of mouse cells into both ICM and TE. TH: TripelennamineHCL; DES: Desloratadine; NAM: Nicotinamide. PD: PD0325901; SB: SB203580; SP: SP600125.
For injection of Tdtomato-labeled mEPS cells and conventional naïve mouse ES cells, mEPS and naïve mouse ES cells were trypsinized and microinjected in the same way as for hEPS cells except that Y27632 was not added into the suspension.
The cells used in this experiment were cultured and prepared in a way that was similar to that of the multiple-cell microinjections. The cell suspension was placed on ice for 20-30 minutes before injection. After being placed on ice, the digested single cells were used for injection within 1 hour: in other words, the whole injection process should not take more than 30 minutes. Afterward, the injected embryos are recovered for 1-2 hours in a humidified incubator with 5% CO2 at 37° C. If the cells were placed on ice for more than 1 hour, then another batch of cells was digested for the remaining injections. […] After 60 hours, the embryos were fixed and immunostained.

primed hES/hPS H9 cells = assay: Screen for dome-shaped hES colony formation / TGFβ signaling-independent self-renewal; format: cell-based, human; conditions: hLIF+2i + candidate with SB431542
Excerpt: Primed hES are flat colonies. By contrast, naïve human pluripotent cells are dome-shaped colonies. Therefore, any resultant human EPS cells can be morphologically distinguished from primed human pluripotent stem cells.
Positive candidates from the first screen above were further screened in order to identify small molecules that support TGFβ signaling-independent self-renewal of hES cells (Tesar, et al., Dev., 448:196-199 (2007); James, et al.,Dev., 132:1273-1282 (2005); Vallier, et al., J. Cell. Sci., 118:4495-4509 (2005)). A TGFβ inhibitor SB431542 was added to the chemical cocktail (2i+LIF+candidate) at the later stage of treatment (FIG. 1A).
Specifically, primed hES/hPS H9 cells were digested into single cells using ACCUTASE® (cell detachment solution), and seeded into a matrigel-coated 24-well plate (1×10^4 cells per well) on day 0 in conventional hES medium plus Y27632. On day 1, the conventional hES medium was replaced by the N2B27 medium supplemented with the hLIF+2i base, and candidates from the first round screen were added individually into each well. The medium was changed every two days and replaced with fresh N2B27 medium supplemented with hLIF+2i. 6 days later (i.e., on day 7), a TGF (transforming growth factor) β inhibitor, SB431542 (10 μm, Tocris), was added into wells with un-differentiated cells for another 6 days. […]

[1] = withdrawal of either DiM or MiH

In the case of `Clc1ccc2c(c1)CCc1cccnc1C2=C1CCNCC1` [Desloratadine], the “maintenance of hEPS cells when DiM or MiH is replaced” value (hEPS cells) is reported as “could be replaced with other inhibitors targeting the same targets for the maintenance of hEPS cells”.

For `C[S+]([O-])c1ccc(-c2nc(-c3ccncc3)c(-c3ccc(F)cc3)[nH]2)cc1` (centres unmarked) [SB203580], the “maintenance of hEPS cells when DiM is replaced by MAPK signaling inhibitor” value (hEPS cells) was “could not maintain hEPS cells” and the “developmental potency of mEPS cells when DiM is replaced by MAPK signaling inhibitor” value (mEPS cells) was “could not preserve the developmental potency of mEPS cells”.

In the case of `NC(=O)c1ccc(I)c([N+](=O)[O-])c1` [BSI-201, 4-iodo-3-nitrobenzamide], the “maintenance of hEPS cells when DiM or MiH is replaced” value (hEPS cells) is reported as “could be replaced with other inhibitors targeting the same targets for the maintenance of hEPS cells”.

`CN(C)CCN(Cc1ccccc1)c1ccccn1` [TripelennamineHCL, Tripelennamine HCL] was tested, and the “maintenance of hEPS cells when DiM or MiH is replaced” value (hEPS cells) was “could be replaced with other inhibitors targeting the same targets for the maintenance of hEPS cells”.

With `NC(=O)c1cccnc1` [Nicotinamide] the “maintenance of hEPS cells when DiM or MiH is replaced” value (hEPS cells) was “could be replaced with other inhibitors targeting the same targets for the maintenance of hEPS cells”.

`O=C(NOC[C@H](O)CO)c1ccc(F)c(F)c1Nc1ccc(I)cc1F` [PD0325901] was tested, and the “maintenance of hEPS cells when DiM is replaced by MAPK signaling inhibitor” value (hEPS cells) was “could not maintain hEPS cells” and the “developmental potency of mEPS cells when DiM is replaced by MAPK signaling inhibitor” value (mEPS cells) was “could not preserve the developmental potency of mEPS cells”.

For `C[C@@H](C1=C(CCN(C)C)Cc2ccccc21)c1ccccn1.O=C(O)/C=C\C(=O)O` [DiM, (S)-(+)-Dimethindene maleate], the “dome-shaped hES colony formation” value (primed hES/hPS H9 cells) was “support dome-shaped hES colony formation”, the “effect of withdrawal from LCDM on hEPS cells” value (hEPS cells; [1]) was “rapid differentiation of hEPS cells within days after plating” and the “effect of withdrawal from LCDM on developmental potency of mEPS cells” value (mEPS cells; [1]) was “significantly impaired the developmental potency of mEPS cells”.
